According to US7405299B2, “Compounds as pharmaceutical agents” (Eli Lilly and Company, priority 2003, dated 2008):

SMILES | melting point
c1ccc(-c2nn3c(c2-c2cccc4nsnc24)CCC3)nc1 [Example 4, 4-[2-(Pyridin-2-yl)-5,6-dihydro-4H-pyrrolo[1,2-b]pyrazol-3-yl]-benzo [2,1,3]thiadiazole] | 140 to 142 °C
c1ccc(-c2nn3c(c2-c2ccc4nsnc4c2)CCC3)nc1 [Example 5, 5-[2-(Pyridin-2-yl)-5,6-dihydro-4H-pyrrolo[1,2-b]pyrazol-3-yl]benzo[2,1,3]thiadiazole] | 184 to 186 °C
c1ccc(-c2nn3c(c2-c2nc4ncccc4[nH]2)CCC3)nc1 [Example 8, 2-[2-(Pyridin-2-yl)-5,6-dihydro-4H-pyrrolo[1,2-b]pyrazol-3-yl]-1H-imidazo[4,5-b]pyridine] | 170 to 172 °C
c1ccc(-c2nn3c(c2-c2nc4cnccc4[nH]2)CCC3)nc1 [Example 9, 2-[2-(Pyridin-2-yl)-5,6-dihydro-4H-pyrrolo[1,2-b]pyrazol-3-yl]-1H-imidazo[4,5-c]pyridine] | 201 to 203 °C
c1ccc(-c2nn3c(c2-c2nc4ccccc4[nH]2)CCC3)nc1 [Example 10, 2-[2-(Pyridin-2-yl)-5,6-dihydro-4H-pyrrolo[1,2-b]pyrazol-3-yl]-1H-benzoimidazole] | 172 to 175 °C
c1ccc(-c2nn3c(c2-c2nc4ncccc4o2)CCC3)nc1 [Example 11, 2-[2-(Pyridin-2-yl)-5,6-dihydro-4H-pyrrolo[1,2-b]pyrazol-3-yl]-oxazolo[4,5-b]pyridine] | 182 to 184 °C
c1ccc(-c2nn3c(c2-c2cncc4cccnc24)CCC3)nc1 [Example 80a, 8-(2-Pyridin-2-yl-5,6-dihydro-4H-pyrrolo[1,2-b]pyrazol-3-yl)-[1,6]naphthyridine] | 180 to 184 °C
